pIC50: −log10 of the molar value.
Experiments:
[1] = molecular target: T1, HCV 2a-c NS3-NS4A heterodimer protein (UniProt P26660); assay: In vitro HCV NS3 protease assay (fluorogenic depsipeptide), genotype 2a-c; format: biochemical, HCV genotype 2a-c; details: read-out: IC50 HCV-2a-c; HCV 2a-c NS3-NS4A protease
T1 sequence (P26660 1031-1661): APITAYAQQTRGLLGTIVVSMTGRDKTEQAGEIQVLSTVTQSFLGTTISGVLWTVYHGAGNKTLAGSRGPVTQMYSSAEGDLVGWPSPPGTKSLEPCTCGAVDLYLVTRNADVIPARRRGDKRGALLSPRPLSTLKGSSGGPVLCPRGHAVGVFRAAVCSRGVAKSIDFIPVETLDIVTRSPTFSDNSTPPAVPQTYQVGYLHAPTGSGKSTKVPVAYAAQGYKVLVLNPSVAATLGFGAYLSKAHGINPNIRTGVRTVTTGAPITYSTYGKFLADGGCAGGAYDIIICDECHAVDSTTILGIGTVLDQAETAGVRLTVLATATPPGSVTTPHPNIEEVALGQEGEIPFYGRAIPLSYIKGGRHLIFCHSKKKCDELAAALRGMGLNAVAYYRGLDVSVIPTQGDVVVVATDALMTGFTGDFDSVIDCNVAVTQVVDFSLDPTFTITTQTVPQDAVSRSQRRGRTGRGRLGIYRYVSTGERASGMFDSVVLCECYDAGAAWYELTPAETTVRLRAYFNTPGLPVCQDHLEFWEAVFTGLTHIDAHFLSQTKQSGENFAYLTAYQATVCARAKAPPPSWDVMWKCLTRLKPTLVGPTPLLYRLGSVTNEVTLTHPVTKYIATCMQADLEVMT
Method: The fluorogenic depsipeptide substrate used to assess inhibition of protease activity of the HCV 1a, 1b, 2b, 2a-c and 3a NS3-NS4A heterodimer protein was anthranilyl-DDIVPAbu[C(O)—O]-AMY(3-NO2)TW—OH (SEQ ID No.10). This substrate is cleaved between the aminobutyric (Abu) and the alanine residues. The sequence DDIVPAbu-AMYTW (SEQ ID No.11) is derived from the sequence DDIVPC—SMSYTW (SEQ ID No.12) corresponding to the NS5A/NS5B natural cleavage site. […] The protease activity was assayed in 50 mM Tris-HCl, pH 8.0, 0.25M sodium citrate, 0.01% n-dodecyl-β-D-maltoside, 1 mM TCEP. The assay was performed in a Microfluor®2 White U-Bottom Microtiter® plate. 5 μM of the substrate and various concentrations of the test compound were incubated with 1.5 nM of HCV 1a or 1b NS3-NS4A heterodimer protein for 45 minutes at 23° C. under gentle agitation. […] The reaction was terminated by the addition of a 1M 2-[N-morpholino]ethanesulfonic acid solution at pH 5.8.
(§1) The fluorescence was monitored using the BMG POLARstar Galaxy 96-well plate reader with an excitation filter of 320 nm, and an emission filter of 405 nm. The level of inhibition (% inhibition) of each well containing test compound was calculated with the following equation (FU=fluorescence unit): [formula]
The calculated % inhibition values were then used to determine IC50, slope factor (n) and maximum inhibition (Imax) by the non-linear regression routine NLIN procedure of SAS using the following equation: [formula] Inhibition Constant (Ki) Determination and mode of Inhibition

[2] = molecular target: T2, HCV 2b NS3-NS4A heterodimer protein (UniProt P26661); assay: In vitro HCV NS3 protease assay (fluorogenic depsipeptide), genotype 2b; format: biochemical, HCV genotype 2b; details: read-out: IC50 HCV-2b; HCV 2b NS3-NS4A protease
T2 construct: fused on or other part: 28 extra N-terminal residues with a hexahistidine tag and an rTEV cleavage site
T2 sequence (P26661 1031-1661): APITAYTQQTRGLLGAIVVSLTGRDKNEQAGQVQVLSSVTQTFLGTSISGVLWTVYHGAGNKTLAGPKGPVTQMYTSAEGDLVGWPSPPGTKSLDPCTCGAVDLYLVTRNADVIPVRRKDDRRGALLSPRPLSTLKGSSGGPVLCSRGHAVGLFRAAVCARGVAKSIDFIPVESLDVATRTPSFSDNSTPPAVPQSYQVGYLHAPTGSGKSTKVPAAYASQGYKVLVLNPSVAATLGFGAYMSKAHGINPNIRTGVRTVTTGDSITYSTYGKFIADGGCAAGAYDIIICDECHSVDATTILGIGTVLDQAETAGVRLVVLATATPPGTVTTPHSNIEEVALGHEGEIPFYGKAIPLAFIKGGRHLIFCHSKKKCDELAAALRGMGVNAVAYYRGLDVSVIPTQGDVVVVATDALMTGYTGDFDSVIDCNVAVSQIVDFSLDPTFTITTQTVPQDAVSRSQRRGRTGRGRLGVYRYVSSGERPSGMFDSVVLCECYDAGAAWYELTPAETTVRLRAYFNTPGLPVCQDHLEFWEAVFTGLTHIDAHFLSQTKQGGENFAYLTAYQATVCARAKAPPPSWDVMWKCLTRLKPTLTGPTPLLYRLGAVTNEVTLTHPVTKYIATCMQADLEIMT
Text: The NS3-NS4 protease genes of HCV genotypes 2b and 3a were amplified from RNA isolated from clinical samples of HCV-infected patients obtained from Dr. G. Steinmann (Germany) using RT-PCR. The primers used for the RT-PCR were 5′[…]3′ (SEQ ID No. 6) as the forward and 5′[…]3′ (SEQ ID No.7) as the reverse primer for the NS3-NS4A of HCV genotype 2b and; 5′[…]3′ (SEQ ID No. 8) as the forward and 5′[…]3′ (SEQ ID No. 9) as the reverse primer for HCV genotype 3a. Each primer contained a unique restriction site for subcloning the fragment in the bacterial expression vector pET11a. The cloning into the vector generated a recombinant fusion protein containing an additional N-terminal 28 residues that comprised a hexahistidine tag and a rTEV protease cleavage site. The recombinant plasmids were used to transform the bacterial strain BL21 DE3 pLysS for protein expression and recombinant protein expression was induced by the addition of IPTG. Following expression, the cells were collected by centrifugation at 4° C. and the cell pellet lysed in a buffer containing 50 mM sodium phosphate, 0.5M NaCl, 40% glycerol, 1.5% NP-40, 0.5% Triton X-100 and the soluble protein fraction was passed through a 5ml HiTrap chelating affinity column as described above. A poly(U)-Sepharose purification step can optionally be conducted in order to remove degradation products and contaminants. […]
as §1
The calculated % inhibition values were then used to determine IC50, slope factor (n) and maximum inhibition (Imax) by the non-linear regression routine NLIN procedure of SAS using the following equation: [formula] […]

[3] = molecular target: T3, GBV-B NS3-NS4A heterodimer protein (Hepatitis GB virus B, UniProt Q69422); assay: In vitro GBV-B NS3 protease assay (HPLC); format: biochemical
T3 construct: The full length GBV-B NS3/NS4A protease gene was isolated from infected tamarin serum; made in house; host or cells: E. coli BL21 DE3 pLysS (pET-29)
T3 sequence (Q69422 1565-1615): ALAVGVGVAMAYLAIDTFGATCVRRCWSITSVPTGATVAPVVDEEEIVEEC
T3 sequence (Q69422 941-1564): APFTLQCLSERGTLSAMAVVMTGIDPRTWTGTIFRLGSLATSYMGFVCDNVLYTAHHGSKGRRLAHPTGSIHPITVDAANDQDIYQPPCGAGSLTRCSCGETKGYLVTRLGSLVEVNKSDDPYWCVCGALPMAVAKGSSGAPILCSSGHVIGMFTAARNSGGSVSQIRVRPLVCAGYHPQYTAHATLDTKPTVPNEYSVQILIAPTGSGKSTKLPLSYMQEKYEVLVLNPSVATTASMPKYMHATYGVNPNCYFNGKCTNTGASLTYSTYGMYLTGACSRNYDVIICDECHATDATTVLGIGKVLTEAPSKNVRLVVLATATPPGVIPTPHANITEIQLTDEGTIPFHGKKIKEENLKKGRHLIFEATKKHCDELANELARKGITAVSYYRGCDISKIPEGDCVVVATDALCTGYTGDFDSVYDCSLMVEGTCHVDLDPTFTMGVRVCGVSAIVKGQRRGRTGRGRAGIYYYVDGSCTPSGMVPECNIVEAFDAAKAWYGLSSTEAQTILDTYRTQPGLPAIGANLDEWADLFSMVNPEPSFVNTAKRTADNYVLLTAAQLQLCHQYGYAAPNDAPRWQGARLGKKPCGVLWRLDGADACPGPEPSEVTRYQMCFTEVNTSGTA
Method: The depsipeptide substrate used to assess inhibition of the protease activity of GBV-B NS3-NS4A heterodimer protein was Ac-DED(EDANS)EE-Abu[C(O)—O] ASK(DABCYL)-NH2 (SEQ ID No. 16) This substrate is cleaved between the aminobutyric (Abu) and the alanine residues and products of the reaction were analyzed by HPLC. The protease activity was assayed in 50 mM Tris-HCl;, pH 8.0, 0.25M sodium citrate, 0.01 % n-dodecyl-β-D-maltoside, 1 mM TCEP. The assay was performed in a Microfluor®2 White U-Bottom Microtiter® plate. 5 μM of the substrate and various concentrations of the test compounds were incubated with 0.4 nM of GBV-B NS3-NS4A heterodimer protein for 2 hours at 23° C. under gentle agitation. […] The reaction was terminated by the addition of a 1M 2-[N-morpholino]ethanesulfonic acid solution at pH 5.8. For quantification, the cleavage products and the substrate were separated by HPLC on a Perkin-Elmer® 3×3CR C8 column. The separation was accomplished by initially eluting at 3.5 mL/min with an aqueous solution containing 0.05% phosphoric acid and 3 mM SDS. A 0 to 45% acetonitrile linear gradient in 0.05% phosphoric acid was then applied for 10 minutes. The absorbance was monitored at 210 nm.

Structure (SMILES)	pIC50 [1]	pIC50 [2]	pIC50 [3]
COc1ccc2c(O[C@@H]3C[C@H]4C(=O)N[C@]5(C(=O)O)CC5/C=C\CCCCC[C@H](NC(=O)OC(C)(C)C)C(=O)N4C3)cc(-c3csc(NC(C)=O)n3)nc2c1 (stereo partly drawn) [III]	6.31	6.29	4.51
COc1ccc2c(O[C@@H]3C[C@H]4C(=O)N[C@]5(C(=O)O)CC5/C=C\CCCCC[C@H](NC(=O)OC(C)(C)C)C(=O)N4C3)cc(-c3ccccc3)nc2c1 (stereo partly drawn) [II]	6.17	6.00	4.44
COc1ccc2c(O[C@@H]3C[C@H]4C(=O)N[C@]5(C(=O)O)CC5/C=C\CCCCC[C@H](NC(=O)OC5CCCC5)C(=O)N4C3)cc(-c3csc(NC(C)C)n3)nc2c1 (stereo partly drawn) [IV]	6.70	6.59	4.80
